{
  "source": "patent US4540572A",
  "about": "“Gel-like ointment containing indometacin” (Mepha AG, priority 1983, dated 1985)",
  "origin": "cited, not measured here",
  "test_system": "human skin",
  "conditions": "from the conventional ointment bases",
  "data": [
    {"smiles": "COc1ccc2c(c1)c(CC(=O)O)c(C)n2C(=O)c1ccc(Cl)cc1", "note": "[indometacin]", "values": [
      {"measurement": "absorption through the human skin", "value": "lack of its absorption"}
    ]}
  ]
}
